# Experimental data reported in ChEMBL document CHEMBL3826966, “A chromatography-free isolation of rohitukine from leaves of Dysoxylum binectariferum: Evaluation for in vitro cytotoxicity, Cdk inhibition and physicochemical properties” (Bioorg Med Chem Lett, 2016).
# Columns and labels:
# [1] = target: Serine/threonine-protein kinase D1 (Homo sapiens) (UniProt Q15139); assay: Inhibition of human PKD1 (2 to 912 residues) assessed as remaining enzyme activity at 50 uM after 30 mins by 33P-ATP filter-binding assay
# [2] = target: MAP kinase-activated protein kinase 3 (Homo sapiens) (UniProt Q16644); assay: Inhibition of human MAPKAPK3 assessed as remaining enzyme activity at 50 uM after 30 mins by 33P-ATP filter-binding assay
# [3] = target: Death-associated protein kinase 1 (Homo sapiens) (UniProt P53355); assay: Inhibition of human DAPK1 (1 to 363) assessed as remaining enzyme activity at 50 uM after 30 mins by 33P-ATP filter-binding assay
# [4] = target: Aurora kinase B (Homo sapiens) (UniProt Q96GD4); assay: Inhibition of human Aurora B (1 to 344 residues) assessed as remaining enzyme activity at 50 uM after 30 mins by 33P-ATP filter-binding assay
# [5] = target: MAP/microtubule affinity-regulating kinase 3 (Homo sapiens) (UniProt P27448); assay: Inhibition of human MARK3 (2 to 729 residues) assessed as remaining enzyme activity at 50 uM after 30 mins by 33P-ATP filter-binding assay
# [6] = target: Serine/threonine-protein kinase SIK2 (Homo sapiens) (UniProt Q9H0K1); assay: Inhibition of human SIK2 (2 to 962 residues) assessed as remaining enzyme activity at 50 uM after 30 mins by 33P-ATP filter-binding assay
# [7] = target: Serine/threonine-protein kinase SIK3 (Homo sapiens) (UniProt Q9Y2K2); assay: Inhibition of human SIK3 (2 to 1369 residues) assessed as remaining enzyme activity at 50 uM after 30 mins by 33P-ATP filter-binding assay
# [8] = target: Casein kinase I isoform gamma-2 (Homo sapiens) (UniProt P78368); assay: Inhibition of human CK1gamma2 (1 to 415 residues) assessed as remaining enzyme activity at 50 uM after 30 mins by 33P-ATP filter-binding assay
# [9] = target: Serine/threonine-protein kinase Nek6 (Homo sapiens) (UniProt Q9HC98); assay: Inhibition of human NEK6 (8 to 313 residues) assessed as remaining enzyme activity at 50 uM after 30 mins by 33P-ATP filter-binding assay
# [10] = target: Inhibitor of nuclear factor kappa-B kinase subunit beta (Homo sapiens) (UniProt O14920); assay: Inhibition of human IKKb (1 to 736 residues) assessed as remaining enzyme activity at 50 uM after 30 mins by 33P-ATP filter-binding assay
# [11] = target: Homeodomain-interacting protein kinase 1 (Homo sapiens) (UniProt Q86Z02); assay: Inhibition of human HIPK1 (158 to 555 residues) assessed as remaining enzyme activity at 50 uM after 30 mins by 33P-ATP filter-binding assay
# [12] = target: Serine/threonine-protein kinase PAK 4 (Homo sapiens) (UniProt O96013); assay: Inhibition of human PAK4 (2 to 591 residues) assessed as remaining enzyme activity at 50 uM after 30 mins by 33P-ATP filter-binding assay
# [13] = target: Mitogen-activated protein kinase kinase kinase 5 (Homo sapiens) (UniProt Q99683); assay: Inhibition of human ASK1 (670 to 950 residues) assessed as remaining enzyme activity at 50 uM after 30 mins by 33P-ATP filter-binding assay
# [14] = target: Interleukin-1 receptor-associated kinase 4 (Homo sapiens) (UniProt Q9NWZ3); assay: Inhibition of human IRAK4 (14 to 460 residues) assessed as remaining enzyme activity at 50 uM after 30 mins by 33P-ATP filter-binding assay
# [15] = target: Dual specificity protein kinase TTK (Homo sapiens) (UniProt P33981); assay: Inhibition of human TTK (1 to 857 residues) assessed as remaining enzyme activity at 50 uM after 30 mins by 33P-ATP filter-binding assay
# [16] = target: Tyrosine-protein kinase SYK (Homo sapiens) (UniProt P43405); assay: Inhibition of human SYK (1 to 635 residues) assessed as remaining enzyme activity at 50 uM after 30 mins by 33P-ATP filter-binding assay
# [17] = target: Tyrosine-protein kinase ZAP-70 (Homo sapiens) (UniProt P43403); assay: Inhibition of human ZAP70 (1 to 619 residues) assessed as remaining enzyme activity at 50 uM after 30 mins by 33P-ATP filter-binding assay
# [18] = target: Angiopoietin-1 receptor (Homo sapiens) (UniProt Q02763); assay: Inhibition of human TIE2 (771 to 1124 residues) assessed as remaining enzyme activity at 50 uM after 30 mins by 33P-ATP filter-binding assay
# [19] = target: Ephrin type-A receptor 2 (Homo sapiens) (UniProt P29317); assay: Inhibition of human EPHA2 (591 to 976 residues) assessed as remaining enzyme activity at 50 uM after 30 mins by 33P-ATP filter-binding assay
# [20] = target: Ephrin type-B receptor 2 (Homo sapiens) (UniProt P29323); assay: Inhibition of human EPHB2 (560 to 987 residues) assessed as remaining enzyme activity at 50 uM after 30 mins by 33P-ATP filter-binding assay
# [21] = target: Insulin-like growth factor 1 receptor (Homo sapiens) (UniProt P08069); assay: Inhibition of human IGF1R (954 to 1367 residues) assessed as remaining enzyme activity at 50 uM after 30 mins by 33P-ATP filter-binding assay
# [22] = target: Vascular endothelial growth factor receptor (Homo sapiens) (UniProt P17948+P35916+P35968); assay: Inhibition of human VEGFR assessed as remaining enzyme activity at 50 uM after 30 mins by 33P-ATP filter-binding assay; format: protein assay
# [23] = Cell cycle arrest in human HL60 cells assessed as accumulation at G1 phase at 5 uM (reference value: 59 %); format: functional, cell-based; conditions: HL-60
# [24] = Ionization constant, pKa of the compound in buffer at pH 1 to 13 by uV spectrophotometry; format: physicochemical
# [25] = target: Aurora kinase A (Homo sapiens) (UniProt O14965); assay: Inhibition of human Aurora A (2 to 403 residues) assessed as remaining enzyme activity at 50 uM after 30 mins by 33P-ATP filter-binding assay
# [26] = Cytotoxicity against human MOLT4 cells assessed as cell growth inhibition after 48 hrs by MTT assay; format: functional; conditions: MOLT-4, 48 h
# [27] = Cytotoxicity against human Hs578T cells assessed as cell growth inhibition after 48 hrs by MTT assay; format: functional; conditions: Hs-578T
# [28] = target: Mitogen-activated protein kinase 11 (Homo sapiens) (UniProt Q15759); assay: Inhibition of human p38beta MAPK (1 to 364 residues) assessed as remaining enzyme activity at 50 uM after 30 mins by 33P-ATP filter-binding assay
# [29] = target: Rho-associated protein kinase 2 (Rattus norvegicus) (UniProt Q62868); assay: Inhibition of rat ROCK2 (2 to 543 residues) assessed as remaining enzyme activity at 50 uM after 30 mins by 33P-ATP filter-binding assay
# [30] = target: Protein kinase C alpha type (Homo sapiens) (UniProt P17252); assay: Inhibition of human PKCalpha (1 to 672 residues) assessed as remaining enzyme activity at 50 uM after 30 mins by 33P-ATP filter-binding assay
# Chain of Serine/threonine-protein kinase Nek6 (Homo sapiens) (Q9HC98 whole entry, the tested form may be a part): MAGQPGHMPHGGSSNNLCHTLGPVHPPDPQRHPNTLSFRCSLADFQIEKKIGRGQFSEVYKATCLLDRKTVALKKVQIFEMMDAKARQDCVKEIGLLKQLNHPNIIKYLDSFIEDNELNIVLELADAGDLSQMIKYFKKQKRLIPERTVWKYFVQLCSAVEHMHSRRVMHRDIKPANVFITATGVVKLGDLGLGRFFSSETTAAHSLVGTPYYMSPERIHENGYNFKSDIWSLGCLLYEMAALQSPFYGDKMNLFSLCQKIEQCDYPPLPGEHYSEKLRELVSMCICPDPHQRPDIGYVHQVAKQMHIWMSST
# Chain of Ephrin type-A receptor 2 (Homo sapiens) (P29317 whole entry, the tested form may be a part): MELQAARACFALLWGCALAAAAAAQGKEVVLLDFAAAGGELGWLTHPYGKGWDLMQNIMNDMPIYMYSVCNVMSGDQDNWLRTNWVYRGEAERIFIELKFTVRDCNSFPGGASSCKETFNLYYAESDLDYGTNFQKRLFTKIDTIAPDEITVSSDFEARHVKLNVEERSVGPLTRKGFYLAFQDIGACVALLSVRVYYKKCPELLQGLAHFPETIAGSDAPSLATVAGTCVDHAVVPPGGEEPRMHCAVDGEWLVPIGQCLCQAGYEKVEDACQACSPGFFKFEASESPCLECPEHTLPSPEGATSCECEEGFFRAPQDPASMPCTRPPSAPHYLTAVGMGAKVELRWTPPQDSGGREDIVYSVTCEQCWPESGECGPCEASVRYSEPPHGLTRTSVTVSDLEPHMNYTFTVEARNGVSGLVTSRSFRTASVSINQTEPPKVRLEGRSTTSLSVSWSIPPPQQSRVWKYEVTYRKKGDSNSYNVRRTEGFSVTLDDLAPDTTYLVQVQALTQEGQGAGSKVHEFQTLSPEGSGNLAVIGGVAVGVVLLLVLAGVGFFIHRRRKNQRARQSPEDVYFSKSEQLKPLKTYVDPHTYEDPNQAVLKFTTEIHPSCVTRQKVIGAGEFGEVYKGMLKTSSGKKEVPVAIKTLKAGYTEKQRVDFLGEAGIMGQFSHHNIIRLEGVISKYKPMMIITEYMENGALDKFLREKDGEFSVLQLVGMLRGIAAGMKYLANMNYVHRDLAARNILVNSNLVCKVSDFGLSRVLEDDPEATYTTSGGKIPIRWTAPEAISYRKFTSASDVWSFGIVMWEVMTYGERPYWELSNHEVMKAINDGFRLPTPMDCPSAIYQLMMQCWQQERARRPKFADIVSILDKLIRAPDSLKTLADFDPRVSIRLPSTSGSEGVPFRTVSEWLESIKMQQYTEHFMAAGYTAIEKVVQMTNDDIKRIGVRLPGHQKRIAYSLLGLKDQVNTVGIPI
# Chain of Rho-associated protein kinase 2 (Rattus norvegicus) (Q62868 whole entry, looked up, the tested form may be a part): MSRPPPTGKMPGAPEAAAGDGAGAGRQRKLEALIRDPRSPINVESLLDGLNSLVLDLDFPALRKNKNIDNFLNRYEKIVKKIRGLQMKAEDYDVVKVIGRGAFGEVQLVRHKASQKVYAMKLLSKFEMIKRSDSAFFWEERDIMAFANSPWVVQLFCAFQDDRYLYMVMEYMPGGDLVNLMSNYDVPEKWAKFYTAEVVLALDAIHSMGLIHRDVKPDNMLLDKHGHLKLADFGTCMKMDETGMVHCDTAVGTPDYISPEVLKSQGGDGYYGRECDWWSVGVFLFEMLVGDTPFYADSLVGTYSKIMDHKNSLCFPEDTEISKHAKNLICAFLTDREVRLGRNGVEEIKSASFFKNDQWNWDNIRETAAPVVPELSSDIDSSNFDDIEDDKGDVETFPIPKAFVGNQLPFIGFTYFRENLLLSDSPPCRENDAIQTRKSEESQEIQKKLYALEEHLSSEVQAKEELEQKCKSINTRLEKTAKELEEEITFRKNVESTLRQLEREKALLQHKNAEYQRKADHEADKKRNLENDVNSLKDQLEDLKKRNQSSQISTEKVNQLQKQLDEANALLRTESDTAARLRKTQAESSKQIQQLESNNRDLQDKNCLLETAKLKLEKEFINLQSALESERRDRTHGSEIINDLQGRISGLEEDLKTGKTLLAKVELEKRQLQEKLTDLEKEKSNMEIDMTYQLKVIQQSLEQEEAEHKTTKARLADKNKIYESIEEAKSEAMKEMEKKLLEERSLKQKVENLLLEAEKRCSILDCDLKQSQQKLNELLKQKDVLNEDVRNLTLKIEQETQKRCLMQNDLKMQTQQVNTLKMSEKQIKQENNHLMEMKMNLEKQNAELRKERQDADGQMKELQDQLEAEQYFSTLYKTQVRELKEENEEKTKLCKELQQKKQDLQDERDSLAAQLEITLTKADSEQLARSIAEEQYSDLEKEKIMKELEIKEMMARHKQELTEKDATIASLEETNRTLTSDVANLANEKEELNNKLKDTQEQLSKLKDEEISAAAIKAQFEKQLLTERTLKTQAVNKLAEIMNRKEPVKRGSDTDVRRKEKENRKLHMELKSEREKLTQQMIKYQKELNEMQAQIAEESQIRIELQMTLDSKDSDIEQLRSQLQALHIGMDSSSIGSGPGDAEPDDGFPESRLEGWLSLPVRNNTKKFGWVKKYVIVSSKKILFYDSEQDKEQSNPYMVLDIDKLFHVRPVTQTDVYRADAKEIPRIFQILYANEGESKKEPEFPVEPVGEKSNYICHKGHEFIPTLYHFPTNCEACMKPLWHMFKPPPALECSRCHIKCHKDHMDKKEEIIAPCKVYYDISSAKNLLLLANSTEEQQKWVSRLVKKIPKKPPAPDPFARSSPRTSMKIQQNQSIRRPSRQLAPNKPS
# Chain of Serine/threonine-protein kinase D1 (Homo sapiens) (Q15139 whole entry, the tested form may be a part): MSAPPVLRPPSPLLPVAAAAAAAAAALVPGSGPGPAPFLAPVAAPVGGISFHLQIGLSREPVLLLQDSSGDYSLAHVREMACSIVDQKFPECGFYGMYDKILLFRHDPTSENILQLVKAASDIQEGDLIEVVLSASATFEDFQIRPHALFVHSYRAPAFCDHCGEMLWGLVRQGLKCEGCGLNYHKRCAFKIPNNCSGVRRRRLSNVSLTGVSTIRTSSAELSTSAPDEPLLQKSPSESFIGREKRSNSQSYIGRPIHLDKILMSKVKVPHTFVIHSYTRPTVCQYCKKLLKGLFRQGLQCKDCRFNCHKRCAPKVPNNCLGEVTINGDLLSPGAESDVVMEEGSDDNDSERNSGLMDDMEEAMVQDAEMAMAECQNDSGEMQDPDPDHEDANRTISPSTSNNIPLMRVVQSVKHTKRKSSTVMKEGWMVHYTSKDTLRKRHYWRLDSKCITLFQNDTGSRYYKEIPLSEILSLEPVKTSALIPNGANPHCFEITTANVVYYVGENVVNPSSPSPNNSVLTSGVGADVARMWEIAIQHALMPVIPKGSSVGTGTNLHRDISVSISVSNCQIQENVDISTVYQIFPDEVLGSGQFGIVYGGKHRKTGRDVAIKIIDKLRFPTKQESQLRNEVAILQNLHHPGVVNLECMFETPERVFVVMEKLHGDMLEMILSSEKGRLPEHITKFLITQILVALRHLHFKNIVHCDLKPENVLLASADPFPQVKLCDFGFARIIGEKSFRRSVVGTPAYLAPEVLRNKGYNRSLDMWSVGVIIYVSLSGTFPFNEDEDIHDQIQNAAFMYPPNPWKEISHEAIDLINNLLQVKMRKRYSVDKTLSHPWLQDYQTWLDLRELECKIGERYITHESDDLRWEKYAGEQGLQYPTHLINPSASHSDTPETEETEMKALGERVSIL
# Chain of Homeodomain-interacting protein kinase 1 (Homo sapiens) (Q86Z02 whole entry, looked up, the tested form may be a part): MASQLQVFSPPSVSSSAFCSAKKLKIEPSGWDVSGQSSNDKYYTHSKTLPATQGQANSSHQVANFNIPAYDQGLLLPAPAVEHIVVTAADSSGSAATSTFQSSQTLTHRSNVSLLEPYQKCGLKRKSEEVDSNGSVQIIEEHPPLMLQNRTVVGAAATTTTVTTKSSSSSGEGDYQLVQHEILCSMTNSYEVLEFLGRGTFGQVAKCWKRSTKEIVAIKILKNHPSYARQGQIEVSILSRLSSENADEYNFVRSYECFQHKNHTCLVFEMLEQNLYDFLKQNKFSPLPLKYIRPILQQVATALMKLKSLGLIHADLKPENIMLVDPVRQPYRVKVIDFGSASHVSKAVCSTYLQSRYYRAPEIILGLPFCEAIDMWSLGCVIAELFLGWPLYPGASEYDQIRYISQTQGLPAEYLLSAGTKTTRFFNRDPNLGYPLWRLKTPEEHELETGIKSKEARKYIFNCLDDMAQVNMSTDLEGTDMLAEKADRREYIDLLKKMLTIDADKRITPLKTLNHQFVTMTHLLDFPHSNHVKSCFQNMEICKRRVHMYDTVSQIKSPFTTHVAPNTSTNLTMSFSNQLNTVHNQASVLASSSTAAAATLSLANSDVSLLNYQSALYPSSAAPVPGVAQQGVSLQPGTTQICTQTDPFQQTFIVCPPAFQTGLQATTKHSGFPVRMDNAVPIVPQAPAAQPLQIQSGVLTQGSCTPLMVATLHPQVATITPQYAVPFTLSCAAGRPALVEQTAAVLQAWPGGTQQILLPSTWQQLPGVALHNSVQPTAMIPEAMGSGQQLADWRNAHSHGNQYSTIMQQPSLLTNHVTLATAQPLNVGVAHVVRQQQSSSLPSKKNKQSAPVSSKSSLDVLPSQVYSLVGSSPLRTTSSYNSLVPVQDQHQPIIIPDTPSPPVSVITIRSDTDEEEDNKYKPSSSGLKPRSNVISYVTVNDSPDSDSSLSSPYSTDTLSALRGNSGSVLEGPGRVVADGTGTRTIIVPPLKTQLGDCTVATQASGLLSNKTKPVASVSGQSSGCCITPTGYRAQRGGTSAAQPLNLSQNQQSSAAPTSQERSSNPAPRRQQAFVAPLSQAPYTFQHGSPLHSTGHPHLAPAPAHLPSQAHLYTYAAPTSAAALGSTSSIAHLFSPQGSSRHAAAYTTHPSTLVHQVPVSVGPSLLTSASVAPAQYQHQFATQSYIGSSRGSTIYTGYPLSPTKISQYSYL
smiles,measurement,setting,value
Cc1cc(=O)c2c(O)cc(O)c([C@H]3CCN(C)C[C@H]3O)c2o1 [ROHITUKINE],Activity,[1],75%
same,Activity,[2],83%
same,Activity,[3],96%
same,Activity,[4],58%
same,Activity,[5],41%
same,Activity,[6],19%
same,Activity,[7],28%
same,Activity,[8],92%
same,Activity,[9],84%
same,Activity,[10],83%
same,Activity,[11],96%
same,Activity,[12],83%
same,Activity,[13],96%
same,Activity,[14],75%
same,Activity,[15],56%
same,Activity,[16],109%
same,Activity,[17],103%
same,Activity,[18],80%
same,Activity,[19],38%
same,Activity,[20],81%
same,Activity,[21],113%
same,Activity,[22],18%
same,Activity,[23],56%
same,pKa,[24],5.83
same,Activity,[25],91%
same,GI50,[26],12 µM
same,GI50,[27],20 µM
same,Activity,[28],76%
same,Activity,[29],64%
same,Activity,[30],78%
